Legend:
A549 = assay: CellTiter-Glo cell viability, A549; format: cell-based
Description: (§1) The 50% inhibitory concentration (IC50) was determined in the cancer cell lines using CellTiter-Glo luminescent cell viability assay after incubation with different concentrations of active agents. Each cell line was treated with active Zn(II) agent, a standard chemotherapy drug as reference control, and culture medium as vehicle control. Cell Lines. All cell lines were cultured in media supplemented with 10-15% FBS, at a temperature of 37° C., 5% CO2, and 95% humidity. The reference control drug for all cell lines was cisplatin, to be used for genomic analysis. The cell lines tested, the tissue of origin are shown below in Table 1: Procedure for Determining Half Maximal Inhibition Concentration IC50 • 1. Harvested cells during the logarithmic growth period and count cell number using Count-star. • 2. Adjusted cell concentrations to 4.44×10^4 cells/mL with respective culture medium. • 3. Added 90 μL cell suspensions to two 96-well plates (plates A and B) with the final cell density of 4×10^3 cells/well. (cell concentration was adjusted according to the data base or density optimization assay.) • 4a. […]

NCI-H460 = assay: CellTiter-Glo cell viability, NCI-H460; format: cell-based
Description: (§2) The 50% inhibitory concentration (IC50) was determined in the cancer cell lines using CellTiter-Glo luminescent cell viability assay after incubation with different concentrations of active agents. Each cell line was treated with active Zn(II) agent, a standard chemotherapy drug as reference control, and culture medium as vehicle control. Cell Lines. All cell lines were cultured in media supplemented with 10-15% FBS, at a temperature of 37° C., 5% CO2, and 95% humidity. The reference control drug for all cell lines was cisplatin, to be used for genomic analysis. The cell lines tested, the tissue of origin are shown below in Table 1: Procedure for Determining Half Maximal Inhibition Concentration IC50 • 1. Harvested cells during the logarithmic growth period and count cell number using Count-star. • 2. Adjusted cell concentrations to 4.44×10^4 cells/mL with respective culture medium. • 3. Added 90 μL cell suspensions to two 96-well plates (plates A and B) with the final cell density of 4×10^3 cells/well. (cell concentration was adjusted according to the data base or density optimization assay.) • 4a. Next day: For the plates of TO reading: • 1) Added 10 μL culture medium to each well of plate A for TO reading. • 2) Equilibrated the plate and its content at RT for approximately 30 min. • 3) Added 50 μL CellTiter-Glo reagent to each well. • 4) Mixed content for 5 min on an orbital shaker to induce cell lysis. • 5) Allowed the plate to incubate at RT for 20 min to stabilize luminescent signal. • 6) Recorded luminescence (TO) using EnVision Multi Label Reader. • 4b. For the plates of test reading: • 1) Prepared 10× solution of Zn(II) agent test article. […] The formula for calculating surviving rate is shown below and the absolute IC50 (EC50) was calculated according to the dose-response curve generated by GraphPad Prism 5.0. • 12) The surviving rate (%)=(LumTest article−LumMedium control)/(LumNon-treated−LumMedium control)×100%.

ML-2 = assay: CellTiter-Glo cell viability, ML-2; format: cell-based
Description: as §2

Jurkat clone E6-1 = assay: CellTiter-Glo cell viability, Jurkat clone E6-1; format: cell-based
Description: as §2

JVM-3 = assay: CellTiter-Glo cell viability, JVM-3; format: cell-based
Description: as §2

Hep G2 = assay: CellTiter-Glo cell viability, Hep G2; format: cell-based
Description: as §2

OVCAR-3 = assay: CellTiter-Glo cell viability, OVCAR-3; format: cell-based
Description: as §2

DU4475 = assay: CellTiter-Glo cell viability, DU4475; format: cell-based
Description: as §2

HeLa = assay: CellTiter-Glo cell viability, HeLa; format: cell-based
Description: as §1

MOLM-16 = assay: CellTiter-Glo cell viability, MOLM-16; format: cell-based
Description: as §2

K-562 = assay: CellTiter-Glo cell viability, K-562; format: cell-based
Description: as §2

HCT-116 = assay: CellTiter-Glo cell viability, HCT-116; format: cell-based
Description: as §2

Kasumi-1 = assay: CellTiter-Glo cell viability, Kasumi-1; format: cell-based
Description: as §2

WSU-NHL = assay: CellTiter-Glo cell viability, WSU-NHL; format: cell-based
Description: as §2

Molt-4 = assay: CellTiter-Glo cell viability, Molt-4; format: cell-based
Description: as §2

NALM-6 = assay: CellTiter-Glo cell viability, NALM-6; format: cell-based
Description: as §2

MOLM-13 = assay: CellTiter-Glo cell viability, MOLM-13; format: cell-based
Description: as §2

Ramos = assay: CellTiter-Glo cell viability, Ramos; format: cell-based
Description: as §2

50 cancer cell lines = assay: Genetic instability mutation analysis of 50 cell line IC50 distribution
Description: Following the 50 cell line screening tests (OmniScreen™) described in Example 6, each cell line was catalogued (yes or no) for the presence of mutations in the following genes by consulting the OncoExpress™ database (Crown Biosciences Inc., Santa Clara, data accession date 18 May 2018˜30 May 2018). • MLH1 (part of the deficient mismatch repair—dMMR-mutations group) • MSH2 (part of the deficient mismatch repair—dMMR-mutations group) • PMS2 (part of the deficient mismatch repair—dMMR-mutations group) • PARP1 • BRCA1 (part of the BRCA1/BRCA2 mutations group) • BRCA2 (part of the BRCA1/BRCA2 mutations group) • TP53
The integrated data were then analyzed using Excel® software (Microsoft, Seattle). Briefly, the sorting algorithm of the Excel® software was used in grouping of the cell lines carrying certain mutations, and in further analysis of the IC50 distribution in each group.
The IC50 distributions among the cell line groups sharing certain genetic mutations were then analyzed for statistical significance.
Statistical analysis was performed using JMP 13 (SAS Institute Inc. Cary, N.C., USA) or Origin 9 (Origin Lab Corp., Northampton, Mass., USA). All data are represented as mean±standard error of the mean (SEM) and were tested for statistical significance using Mann-Whitney U test or analysis of variance (ANOVA). P-values of <0.05 were interpreted as statistically significant.

[1] = 96 h, top conc. 50 μg/mL Zn(II) agent, 100 μM cisplatin

## N.N.[Cl][Pt][Cl] [Cisplatin]
A549; [1]
  % inhibition at top conc.: 97.57%
A549; 96 h dose-response fit
  HillSlope: −0.93
NCI-H460; 96 h, CellTiter-Glo
  Absolute IC50: 0.15 µg/mL
NCI-H460; [1]
  % inhibition at top conc.: 99.98%
NCI-H460; 96 h dose-response fit
  HillSlope: −1.63
ML-2; 96 h, CellTiter-Glo
  Absolute IC50: 0.32 µg/mL
ML-2; [1]
  % inhibition at top conc.: 100.00%
ML-2; 96 h dose-response fit
  HillSlope: −3.28
Jurkat clone E6-1; 96 h, CellTiter-Glo
  Absolute IC50: 0.17 µg/mL
Jurkat clone E6-1; [1]
  % inhibition at top conc.: 99.99%
Jurkat clone E6-1; 96 h dose-response fit
  HillSlope: −2.37
JVM-3; 96 h, CellTiter-Glo
  Absolute IC50: 0.14 µg/mL
JVM-3; [1]
  % inhibition at top conc.: 99.99%
JVM-3; 96 h dose-response fit
  HillSlope: −1.70
Hep G2; 96 h, CellTiter-Glo
  Absolute IC50: 0.55 µg/mL
Hep G2; [1]
  % inhibition at top conc.: 98.96%
Hep G2; 96 h dose-response fit
  HillSlope: −0.90
OVCAR-3; 96 h, CellTiter-Glo
  Absolute IC50: 1.08 µg/mL
OVCAR-3; [1]
  % inhibition at top conc.: 97.70%
OVCAR-3; 96 h dose-response fit
  HillSlope: −2.96
DU4475; 96 h, CellTiter-Glo
  Absolute IC50: 0.31 µg/mL
DU4475; [1]
  % inhibition at top conc.: 99.94%
DU4475; 96 h dose-response fit
  HillSlope: −2.54
HeLa; [1]
  % inhibition at top conc.: 99.91%
HeLa; 96 h dose-response fit
  HillSlope: −1.70
MOLM-16; 96 h, CellTiter-Glo
  Absolute IC50: 0.15 µg/mL
MOLM-16; [1]
  % inhibition at top conc.: 99.96%
MOLM-16; 96 h dose-response fit
  HillSlope: −1.65
K-562; 96 h, CellTiter-Glo
  Absolute IC50: 1.02 µg/mL
K-562; [1]
  % inhibition at top conc.: 97.71%
K-562; 96 h dose-response fit
  HillSlope: −1.81
HCT-116; 96 h, CellTiter-Glo
  Absolute IC50: 2.89 µg/mL
HCT-116; [1]
  % inhibition at top conc.: 91.19%
HCT-116; 96 h dose-response fit
  HillSlope: −2.03
Kasumi-1; 96 h, CellTiter-Glo
  Absolute IC50: 0.71 µg/mL
Kasumi-1; [1]
  % inhibition at top conc.: 99.98%
Kasumi-1; 96 h dose-response fit
  HillSlope: −1.18
WSU-NHL; 96 h, CellTiter-Glo
  Absolute IC50: 0.06 µg/mL
WSU-NHL; [1]
  % inhibition at top conc.: 99.99%
WSU-NHL; 96 h dose-response fit
  HillSlope: −1.77
Molt-4; 96 h, CellTiter-Glo
  Absolute IC50: 0.10 µg/mL
Molt-4; [1]
  % inhibition at top conc.: 99.99%
Molt-4; 96 h dose-response fit
  HillSlope: −2.01
NALM-6; 96 h, CellTiter-Glo
  Absolute IC50: 0.21 µg/mL
NALM-6; [1]
  % inhibition at top conc.: 99.64%
NALM-6; 96 h dose-response fit
  HillSlope: −2.22
MOLM-13; 96 h, CellTiter-Glo
  Absolute IC50: 0.16 µg/mL
MOLM-13; [1]
  % inhibition at top conc.: 99.98%
MOLM-13; 96 h dose-response fit
  HillSlope: −2.08
Ramos; 96 h, CellTiter-Glo
  Absolute IC50: 0.17 µg/mL
Ramos; [1]
  % inhibition at top conc.: 99.99%
Ramos; 96 h dose-response fit
  HillSlope: −2.13
50 cancer cell lines
  effect of CREBBPmt-KRASmt-BRCA1WT combination on sensitivity: strong resistance
